Source: patent publication EP4748839A1 (CSPC Zhongqi Pharmaceutical Technology (Shijiazhuang) Co., …, priority 2023, dated 2025)

Columns and labels:
GLP-1R = molecular target: T1, GLP-1R (Homo sapiens, UniProt P43220); assay: GLP-1R agonistic effect in GLP1R-cAmp-Luc cells (luciferase reporter; titled 'Enzymatic assay'); format: cell-based; conditions: for EC50: 4 hours incubation, firefly luciferin signal; for EC50 of Positive reference / EC50 of Compound of the Present Application: Positive reference is PF-06882961
T1 construct: expressed in transfected cells
T1 sequence (P43220 24-463, species assumed): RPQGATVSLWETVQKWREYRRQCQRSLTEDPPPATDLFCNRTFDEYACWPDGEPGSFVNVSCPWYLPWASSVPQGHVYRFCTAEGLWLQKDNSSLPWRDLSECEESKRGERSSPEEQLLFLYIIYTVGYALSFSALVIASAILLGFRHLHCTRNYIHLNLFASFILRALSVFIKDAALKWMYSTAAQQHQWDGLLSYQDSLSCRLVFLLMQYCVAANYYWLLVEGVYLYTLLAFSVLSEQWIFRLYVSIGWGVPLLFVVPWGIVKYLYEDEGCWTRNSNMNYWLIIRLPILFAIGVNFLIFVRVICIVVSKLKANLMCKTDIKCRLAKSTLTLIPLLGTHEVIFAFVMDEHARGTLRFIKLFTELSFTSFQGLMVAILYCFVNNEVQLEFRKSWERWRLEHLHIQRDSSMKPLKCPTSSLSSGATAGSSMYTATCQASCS
Method: The GLP-1R agonistic effects of the test compounds were determined using GLP1R-cAmp-Luc cells. 1) The test compound was dissolved in DMSO and mixed well until the test compound was completely dissolved. The test compounds were dissolved in DMSO to prepare 10 mM stock solutions. All compounds were diluted with DMEM medium (high sugar, Puromycin^+, Hygromycin B^+) to an initial concentration of 1250 nM, and then subjected to 5-fold serial dilution to a total of 7 concentration gradients. The GLP1R-cAmp-Luc cells were seeded in white-wall 96-well cell culture plates at a density of 1×10^5/mL, with 90 µL cell suspension per well; the test compound at each of the 7 concentration gradients was added at 10 µL per well, with the actual initial working concentration of 125 nM; and the cells were placed in a 37 °C, 5% CO2 cell incubator for 4 hours; 2) 100 µL of luciferin potassium salt solution diluted to 300 µg/mL in PBS was added to each well at a working concentration of 150 µg/mL and incubated at room temperature for 30 minutes; 3) fluorescence signals of firefly luciferin were measured with a multifunctional microplate reader (PerkinElmer, Nivo); and the fluorescence values were processed using GraphPad Prism software to calculate EC50 values.

[1] = In vivo pharmacokinetic assay in mice; conditions: mouse; ICR mice (female), oral gavage 10 mg/kg, plasma
Method: Experimental animals: ICR mice (female, 22-25 g), purchased from Beijing Vital River Laboratory Animal Technology Co., Ltd.
Experimental procedure: ICR mice were administered the test compounds by gavage. Whole blood samples of the mice were collected at 15 min, 0.5 h, 1 h, 2 h, 4 h, 8 h and 24 h after administration and centrifuged to isolate plasma. The compound concentration was measured by LC-MS/MS, and pharmacokinetic parameters such as Area Under the Concentration-Time Curve (AUC) were calculated using Winnolin software.
Oral gavage dose: 10 mg/kg.
Measurement method: Quantitative analysis was carried out in the LC/MS/MS system after pretreatment with a protein precipitation method.

hERG channel = hERG channel (Homo sapiens, UniProt Q12809); assay: hERG test, automated patch-clamp in CHO cells stably expressing hERG; format: cell-based; conditions: hERG current inhibition, 0.37-30 µM, n = 2
Sequence of hERG channel (Q12809 whole entry): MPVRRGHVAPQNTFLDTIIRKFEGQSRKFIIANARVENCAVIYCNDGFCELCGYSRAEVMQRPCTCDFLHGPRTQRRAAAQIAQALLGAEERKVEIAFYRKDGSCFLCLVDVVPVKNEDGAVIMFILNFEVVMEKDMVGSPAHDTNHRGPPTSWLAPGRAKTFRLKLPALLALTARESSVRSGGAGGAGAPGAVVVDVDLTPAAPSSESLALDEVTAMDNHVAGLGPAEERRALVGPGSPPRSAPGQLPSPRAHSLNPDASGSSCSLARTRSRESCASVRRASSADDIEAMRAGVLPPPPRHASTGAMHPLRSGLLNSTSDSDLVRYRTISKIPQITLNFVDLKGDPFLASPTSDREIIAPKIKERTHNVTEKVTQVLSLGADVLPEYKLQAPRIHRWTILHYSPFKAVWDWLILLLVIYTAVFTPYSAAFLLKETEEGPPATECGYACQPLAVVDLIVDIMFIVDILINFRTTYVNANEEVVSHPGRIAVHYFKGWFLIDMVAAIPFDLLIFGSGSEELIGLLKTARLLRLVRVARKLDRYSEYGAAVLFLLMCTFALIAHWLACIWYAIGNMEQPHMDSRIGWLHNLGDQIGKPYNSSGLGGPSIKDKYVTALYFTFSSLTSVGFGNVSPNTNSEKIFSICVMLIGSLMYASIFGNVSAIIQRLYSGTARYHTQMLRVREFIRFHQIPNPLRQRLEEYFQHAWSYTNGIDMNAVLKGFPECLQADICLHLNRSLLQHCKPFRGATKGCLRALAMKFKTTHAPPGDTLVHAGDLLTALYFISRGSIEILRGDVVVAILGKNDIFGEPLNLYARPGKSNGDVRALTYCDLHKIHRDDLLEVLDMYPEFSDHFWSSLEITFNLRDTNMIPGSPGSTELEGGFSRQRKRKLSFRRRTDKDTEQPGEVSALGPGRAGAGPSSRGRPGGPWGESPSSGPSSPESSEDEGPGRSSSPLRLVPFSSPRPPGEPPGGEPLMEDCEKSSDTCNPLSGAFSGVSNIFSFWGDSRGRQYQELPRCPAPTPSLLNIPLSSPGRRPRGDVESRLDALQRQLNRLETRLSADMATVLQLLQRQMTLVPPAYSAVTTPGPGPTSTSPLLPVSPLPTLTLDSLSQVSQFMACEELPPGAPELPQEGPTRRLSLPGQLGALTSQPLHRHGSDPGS
Method: The potential inhibitory effects of the test compounds on the hERG channel were assessed using an automated patch-clamp system. In this study, the CHO cell line stably expressing the hERG gene was used, with Cisapride as the positive control.
The CHO-hERG-DUO cell line stably expressing the hERG channel was purchased from B'SYS GmbH. The cells were cultured in F12 (HAM) medium supplemented with 10%FBS, 100 U/mL penicillin-streptomycin, 100 µg/mL hygromycin, and 100 µg/mL G418. The cells were passaged three times per week and maintained at about 80% confluence.
The test compounds were dissolved in DMSO to prepare stock solutions at a final concentration of 10 mM; the stock solution was then serially diluted with DMSO in a 1: 3 ratio (3.33 mM, 1.11 mM and 0.37 mM); and the final concentrations of the test compounds were 30 µM, 10 µM, 3.33 µM, 1.11 µM and 0.37 µM.
A baseline was established using the blank vehicle. […] The hERG current was recorded for no less than 5 minutes to reach a steady state, and then 5 scans were captured. […] The experiments were performed in duplicate (n = 2) and hERG current inhibition by five concentrations of the compound were measured to determine the IC50.
The percent current inhibition was calculated using the following equation. […]
The IC50 was calculated using Graphpad Prism 8.0.

[2] = tested on: C57BL/6 hGLP1R transgenic mice; assay: Determination of food intake inhibition rate; format: in vivo; conditions: C57BL/6 hGLP1R mice, gavage, 2mpk, administrated once
Method: The food intake of C57BL/6 hGLP1R transgenic mice in each cage was measured at 18:00 on the day before administration, and the remaining weight of food was measured at 8: 00 on the next day (day 0) The difference between the two measurements was recorded as the baseline food intake weight. The mice were randomly grouped (test compound group and vehicle group) according to the baseline food intake and body weight. The food intake and body weight of the mice at 0 h were measured before administration. The mice were administered by gavage at 20:00 on day 0, and then the food intake and body weight of the mice were measured at specific time points. The phase (within a defined period of time) food intake, phase food intake rate, cumulative (after administration to a specific time point) food intake, cumulative food intake rate and body weight were finally statistically analyzed to evaluate the food intake inhibitory effect of the compounds. Cumulative Food intake (g) = (mbefore)−(mafter). [formula]
"m before" is the weight of food before food intaking for the period of time, and "m after" is the weight of food after food intaking for the period of time. Food intake inhibition rate (%) = (1−(madministrationgroup)/(mvehiclegroup))*100. [formula]
"m administration group" is the cumulative food intake of the administration group during the period of time, and "m vehicle group" is the cumulative food intake of the vehicle group during the period of time.

Row | SMILES | EC50 (GLP-1R) | AUC(0-t) [1] | EC50 of Positive reference / EC50 of Compound of the Present Application (GLP-1R) | also measured
1 | COc1cc(C(=O)O)cc2c1nc(Cc1c(F)cc(-c3cccc(OCc4ccc(Cl)cc4F)n3)c3c1CCO3)n2CC1(CF)CC1 [Compound 92, 2-((7-(6-((4-Chloro-2-fluorobenzyl)oxy)pyridin-2-yl)-5-fluoro-2,3-dihydrobenzofuran-4-yl)methyl)-1-((1-(fluoromethyl)cyclopropyl)methyl)-4-methoxy-1H-benzo[d]imidazole-6-carboxylic acid] |  | 23700 ng·h/mL |  | 
2 | COc1cc(C(=O)O)cc2c1nc(Cc1c(F)cc(-c3nc(OCc4ccc(C)cc4F)ncc3F)c3c1CCO3)n2C[C@@H]1CCO1 [Compound 134] | ≤ 1 nM | 15700 ng·h/mL | Ratio ≥10 | 
3 | COc1cc(C(=O)O)cc2c1nc(Cc1c(F)cc(-c3ccc(F)c(OCc4ccc(Cl)cc4F)c3)c3c1CCO3)n2C[C@@H]1CCO1 [Compound 105, (S)-2-((7-(3-((4-chloro-2-fluorobenzyl)oxy)-4-fluorophenyl)-5-fluoro-2,3-dihydrobenzofuran-4-yl)methyl)-4-methoxy-1-(oxetan-2-ylmethyl)-1H-benzo[d]imidazole-6-carboxylic acid] | 1 to 5 nM | 6900 ng·h/mL |  | 
4 | COc1cc(C(F)(F)F)ccc1COc1cccc(-c2cc(F)c(Cc3nc4ccc(C(=O)O)cc4n3CC3(CF)CC3)c3c2OCC3)n1 [Compound 83, 2-((5-Fluoro-7-(6-((2-methoxy-4-(trifluoromethyl)benzyl)oxy)pyridin-2-yl)-2,3-dihydrobenzofuran-4-yl)methyl)-1-((1-(fluoromethyl)cyclopropyl)methyl)-1H-benzo[d]imidazole-6-carboxylic acid] |  | 14000 ng·h/mL |  | 
5 | COc1cc(C(=O)O)cc2c1nc(Cc1c(F)cc(-c3ccc(F)c(OCc4ccc(Cl)cc4F)n3)c3c1CCO3)n2C[C@@H]1CCO1 [Compound 101, (S)-2-((7-(6-((4-chloro-2-fluorobenzyl)oxy)-5-fluoropyridin-2-yl)-5-fluoro-2,3-dihydrobenzofuran-4-yl)methyl)-4-methoxy-1-(oxetan-2-ylmethyl)-1H-benzo[d]imidazole-6-carboxylic acid] | ≤ 1 nM | 22500 ng·h/mL | Ratio ≥10 | cumulative food intake inhibition rate 0-2.5 hours ([2]; 0-2.5 hours): 97%; cumulative food intake inhibition rate 0-5 hours ([2]; 0-5 hours): 89%; cumulative food intake inhibition rate 0-12 hours ([2]; 0-12 hours): 75%
6 | COc1cc(C(=O)O)cc2c1nc(Cc1c(F)cc(-c3ccc(F)c(OCc4ccc(C)cc4F)n3)c3c1CCO3)n2C[C@@H]1CCO1 [Compound 132, (S)-2-((7-(5-fluoro-6-((2-fluoro-4-methylbenzyl)oxy)pyridin-2-yl)-5-fluoro-2,3-dihydrobenzofuran-4-yl)methyl)-4-methoxy-1-(oxetan-2-ylmethyl)-1H-benzo[d]imidazole-6-carboxylic acid] | ≤ 1 nM | 19500 ng·h/mL | Ratio ≥10 | 
7 | O=C(O)c1ccc2nc(Cc3c(F)cc(-c4cccc(OCc5ccc(Cl)cc5F)n4)c4c3CCO4)n(CC3(CF)CC3)c2c1 [Compound 14, 2-((7-(6-((4-chloro-2-fluorobenzyl)oxy)pyridin-2-yl)-5-fluoro-2,3-dihydrobenzofuran-4-yl)methyl)-1-((1-(fluoromethyl)cyclopropyl)methyl)-1H-benzo[d]imidazole-6-carboxylic acid] | 1 to 5 nM | 12700 ng·h/mL |  | 
8 | COc1cc(C(=O)O)cc2c1nc(Cc1c(F)cc(-c3nccc(OCc4ccc(Cl)cc4F)n3)c3c1CCO3)n2C[C@@H]1CCO1 [Compound 117, (S)-2-((7-(4-((4-chloro-2-fluorobenzyl)oxy)pyrimidin-2-yl)-5-fluoro-2,3-dihydrobenzofuran-4-yl)methyl)-4-methoxy-1-(oxetan-2-ylmethyl)-1H-benzo[d]imidazole-6-carboxylic acid] | ≤ 1 nM |  | Ratio ≥10 | 

Continued, in another order:

Row | EC50 (GLP-1R) | AUC(0-t) [1] | EC50 of Positive reference / EC50 of Compound of the Present Application (GLP-1R) | SMILES | also measured
9 | ≤ 1 nM | 8440 ng·h/mL |  | COc1cc(C(=O)O)cc2c1nc(Cc1c(F)cc(-c3cccc(OCc4ccc(C#N)cc4F)n3)c3c1CCO3)n2CC1(CF)CC1 [Compound 93, 2-((7-(6-((4-Cyano-2-fluorobenzyl)oxy)pyridin-2-yl)-5-fluoro-2,3-dihydrobenzofuran-4-yl)methyl)-1-((1-(fluoromethyl)cyclopropyl)methyl)-4-methoxy-1H-benzo[d]imidazole-6-carboxylic acid] | 
10 | ≤ 1 nM |  | Ratio ≥10 | COc1cc(C(F)(F)F)ccc1COc1cccc(-c2cc(F)c(Cc3nc4ccc(C(=O)O)cc4n3C[C@@H]3CCO3)c3c2OCC3)n1 [Compound 71, (S)-2-((5-fluoro-7-(6-((2-methoxy-4-(trifluoromethyl)benzyl)oxy)pyridin-2-yl)-2,3-dihydrobenzofuran-4-yl)methyl)-1-(oxetan-2-ylmethyl)-1H-benzo[d]imidazole-6-carboxylic acid] | IC50 (hERG channel; human, CHO-hERG-DUO cells stably expressing hERG): > 30000 nM
11 | ≤ 1 nM | 12200 ng·h/mL |  | COc1cc(C(=O)O)cc2c1nc(Cc1c(F)cc(-c3cccc(OCc4ccc(Cl)cc4OC(F)F)n3)c3c1CCO3)n2CC1(CF)CC1 [Compound 87, 2-((7-(6-((4-Chloro-2-(difluoromethoxy)benzyl)oxy)pyridin-2-yl)-5-fluoro-2,3-dihydrobenzofuran-4-yl)methyl)-1-((1-(fluoromethyl)cyclopropyl)methyl)-4-methoxy-1H-benzo[d]imidazole-6-carboxylic acid] | IC50 (hERG channel; CHO-hERG-DUO cells): > 30000 nM
12 | ≤ 1 nM | 8300 ng·h/mL | Ratio ≥10 | COc1cc(C(=O)O)cc2c1nc(Cc1c(F)cc(-c3nc(OCc4ccc(Cl)cc4F)ncc3F)c3c1CCO3)n2C[C@@H]1CCO1 [Compound 118, (S)-2-((7-(2-((4-chloro-2-fluorobenzyl)oxy)-5-fluoropyrimidin-4-yl)-5-fluoro-2,3-dihydrobenzofuran-4-yl)methyl)-4-methoxy-1-(oxetan-2-ylmethyl)-1H-benzo[d]imidazole-6-carboxylic acid] | 
13 | ≤ 1 nM | 14100 ng·h/mL |  | COc1cc(C(F)(F)F)ccc1COc1cccc(-c2cc(F)c(Cc3nc4c(OC)cc(C(=O)O)cc4n3CC3(CF)CC3)c3c2OCC3)n1 [Compound 89, 2-((5-Fluoro-7-(6-((2-methoxy-4-(trifluoromethyl)benzyl)oxy)pyridin-2-yl)-2,3-dihydrobenzofuran-4-yl)methyl)-1-((1-(fluoromethyl)cyclopropyl)methyl)-4-methoxy-1H-benzo[d]imidazole-6-carboxylic acid] | 
